The target of test [1] is T1, unphosphorylated c-FMS kinase (uFMS, Seq. ID no. 1) (Homo sapiens, UniProt P07333).
T1 construct: purchased Millipore
T1 sequence (P07333 538-972): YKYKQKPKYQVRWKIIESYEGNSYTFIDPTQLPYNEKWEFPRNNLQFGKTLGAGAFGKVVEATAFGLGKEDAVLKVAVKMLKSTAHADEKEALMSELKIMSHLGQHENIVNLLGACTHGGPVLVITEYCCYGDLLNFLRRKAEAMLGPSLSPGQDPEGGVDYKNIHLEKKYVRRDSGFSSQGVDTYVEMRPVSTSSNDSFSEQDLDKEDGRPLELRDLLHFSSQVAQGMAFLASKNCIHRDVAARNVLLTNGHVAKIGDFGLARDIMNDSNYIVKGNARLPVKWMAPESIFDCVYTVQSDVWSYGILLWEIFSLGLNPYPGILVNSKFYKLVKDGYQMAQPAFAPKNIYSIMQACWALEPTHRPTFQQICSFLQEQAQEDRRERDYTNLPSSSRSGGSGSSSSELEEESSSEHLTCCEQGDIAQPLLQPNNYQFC
In words: uFMS kinase assay (pyruvate kinase/lactate dehydrogenase coupled). The test is classed as biochemical. Conditions: ATP 500 μM.
Description: In this assay, the oxidation of NADH (thus the decrease at A340 nm) was continuously monitored spectrophometrically. The reaction mixture (100 μL) contained FMS (purchased from Millipore) (10 nM), polyE4Y (1 mg/mL), MgCl2 (10 mM), pyruvate kinase (4 units), lactate dehydrogenase (0.7 units), phosphoenol pyruvate (1 mM), NADH (0.28 mM) and ATP (500 μM) in 90 mM Tris buffer containing 0.2% octyl-glucoside and 1% DMSO, pH 7.5. The inhibition reaction was started by mixing serial diluted test compound with the above reaction mixture. The absorption at 340 nm was monitored continuously for 4 hours at 30° C. on Synergy 2 plate reader. The reaction rate was calculated using the 3 to 4 h time frame. Percent inhibition was obtained by comparison of reaction rate with that of a control (i.e. in the absence of test compound). IC50 values were calculated from a series of percent inhibition values determined at a range of inhibitor concentrations using software routines as implemented in the GraphPad Prism software package.

The target of test [2] is T2, unphosphorylated c-KIT kinase (uKIT, Seq. ID no. 2) (Homo sapiens, UniProt P10721).
T2 construct: uKit with N-terminal GST fusion used for
In words: uKit kinase assay (pyruvate kinase/lactate dehydrogenase coupled). The test is classed as biochemical. Conditions: ATP 2000 μM.
Description: In this assay, the oxidation of NADH (thus the decrease at A340 nm) was continuously monitored spectrophometrically. […] The inhibition reaction was started by mixing serial diluted test compound with the above reaction mixture. The absorption at 340 nm was monitored continuously for 4 hours at 30° C. on Synergy 2 plate reader (BioTech).

The target in test [3] is T3, unphosphorylated PDGFRβ kinase (uPDGFRβ, Seq. ID No. 3) (Homo sapiens, UniProt P09619).
T3 construct: purchased DeCode
In words: Unphosphorylated PDGFRβ kinase assay (pyruvate kinase/lactate dehydrogenase coupled). Type of test: biochemical. Particulars: ATP 500 μM. An excerpt:
Unphosyhorylated PDGFRβ (uPDGFRβkinase (Seq. ID No. 3) assay

The test system of a further test is M-NFS-60 cells. Description: M-NFS-60 cell proliferation assay. The test is classed as cell-based. Conditions: 67 h incubation, resazurin. Background: Resazurin is reduced to fluorescent resorufin, in cell work by metabolically active cells.
The subject of another test is osteoclast precursors. In words: Osteoclast tartrate-resistant acid phosphatase assay. Type of test: cell-based. Conditions: Osteoclast; 7-14 days, RANKL and M-CSF. The protocol: Diluted compound was transferred to a 384-well black clear bottom plate. Two-thousand five hundred osteoclast precursors (Lonza, Walkersville, Md.) were added per well in growth media containing Receptor Activator of Nuclear Factor Kappa-beta ligand (RANKL) and M-CSF (R&D Systems, Minneapolis, Minn.). Plates were incubated for 7-14 days at 37 degrees Celsius, 5% CO2, and 95% humidity to allow differentiation of osteoclast precursors. […] Tartrate-resistant acid phosphatase activity in the supernatant samples was determined using an acid phosphatase assay kit (Sigma, St. Louis, Mo.). Absorbance was measured at 550 nm using a plate reader. Data was analyzed using Prism software (Graphpad, San Diego, Calif.) to calculate IC50 values.

In test [4] the target is T4, phospho-FMS in THP-1 cells (Homo sapiens, UniProt P07333).
T4 construct: endogenous in cells; host or cells: THP-1 (ATCC TIB-202)
Description: Phospho-FMS ELISA assay in THP-1 cells. Type of test: cell-based. Particulars: 4 hours compound, M-CSF stimulated; read-out: pFMS inhibition in THP-1 cells. A general note: In an ELISA, binding on a coated surface is turned into a signal by an enzyme label.
Description: In a separate 96 well black clear bottom plate, one hundred and fifty thousand THP-1 cells were added per well in 100 μL in assay medium. Fifty microliters of diluted compound was then added to the cells. […] Lysates were prepared and used to perform the phospho-FMS ELISA as described by the manufacturer (catalog #DYC3268, R & D Systems, Minneapolis, Minn.). GraphPad Prism was used to calculate IC50 values obtained from data generated from the ELISA assay.

Bounds are passed on as bounds.

T4 sequence (P07333 20-972): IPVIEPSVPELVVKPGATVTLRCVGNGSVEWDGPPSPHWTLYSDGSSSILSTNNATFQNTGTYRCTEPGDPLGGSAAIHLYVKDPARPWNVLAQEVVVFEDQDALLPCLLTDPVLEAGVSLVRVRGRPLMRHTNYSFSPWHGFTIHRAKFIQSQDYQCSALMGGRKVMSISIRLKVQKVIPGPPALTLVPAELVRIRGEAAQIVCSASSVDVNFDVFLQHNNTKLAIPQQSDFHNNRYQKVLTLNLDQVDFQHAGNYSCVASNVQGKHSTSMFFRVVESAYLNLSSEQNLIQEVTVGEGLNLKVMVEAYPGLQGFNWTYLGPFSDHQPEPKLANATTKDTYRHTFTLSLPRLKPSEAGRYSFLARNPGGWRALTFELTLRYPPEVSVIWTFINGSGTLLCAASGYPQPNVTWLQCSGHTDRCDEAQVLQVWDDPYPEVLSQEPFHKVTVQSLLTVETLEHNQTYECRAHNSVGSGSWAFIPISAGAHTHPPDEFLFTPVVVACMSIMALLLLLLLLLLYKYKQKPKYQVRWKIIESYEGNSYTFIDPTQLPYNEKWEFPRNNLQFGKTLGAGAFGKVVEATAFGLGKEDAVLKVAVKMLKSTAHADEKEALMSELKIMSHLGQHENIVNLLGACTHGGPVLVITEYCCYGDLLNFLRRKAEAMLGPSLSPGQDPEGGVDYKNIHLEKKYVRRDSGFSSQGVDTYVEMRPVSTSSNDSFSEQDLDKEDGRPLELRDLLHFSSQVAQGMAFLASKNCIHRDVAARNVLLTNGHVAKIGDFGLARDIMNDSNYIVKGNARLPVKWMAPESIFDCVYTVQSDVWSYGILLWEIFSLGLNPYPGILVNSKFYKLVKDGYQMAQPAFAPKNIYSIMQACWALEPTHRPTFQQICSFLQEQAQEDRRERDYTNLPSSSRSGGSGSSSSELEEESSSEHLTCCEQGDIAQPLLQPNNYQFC
T3 sequence (P09619 557-1105): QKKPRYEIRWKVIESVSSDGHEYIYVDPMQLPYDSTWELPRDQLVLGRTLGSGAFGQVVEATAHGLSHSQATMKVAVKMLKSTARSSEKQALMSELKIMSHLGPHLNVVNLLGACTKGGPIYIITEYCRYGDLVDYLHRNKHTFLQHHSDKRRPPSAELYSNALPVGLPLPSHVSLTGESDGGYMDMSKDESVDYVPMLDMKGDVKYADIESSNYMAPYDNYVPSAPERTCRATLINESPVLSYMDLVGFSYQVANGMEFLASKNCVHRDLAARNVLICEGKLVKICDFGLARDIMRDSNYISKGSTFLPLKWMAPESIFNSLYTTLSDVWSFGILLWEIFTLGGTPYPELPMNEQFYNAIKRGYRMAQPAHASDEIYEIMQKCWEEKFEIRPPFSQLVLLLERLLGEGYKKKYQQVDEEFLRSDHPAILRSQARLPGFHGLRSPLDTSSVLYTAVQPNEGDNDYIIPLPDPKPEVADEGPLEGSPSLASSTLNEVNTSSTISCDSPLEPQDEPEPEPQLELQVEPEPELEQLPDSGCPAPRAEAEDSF
T2 sequence (P10721 with tags, fused parts or gaps): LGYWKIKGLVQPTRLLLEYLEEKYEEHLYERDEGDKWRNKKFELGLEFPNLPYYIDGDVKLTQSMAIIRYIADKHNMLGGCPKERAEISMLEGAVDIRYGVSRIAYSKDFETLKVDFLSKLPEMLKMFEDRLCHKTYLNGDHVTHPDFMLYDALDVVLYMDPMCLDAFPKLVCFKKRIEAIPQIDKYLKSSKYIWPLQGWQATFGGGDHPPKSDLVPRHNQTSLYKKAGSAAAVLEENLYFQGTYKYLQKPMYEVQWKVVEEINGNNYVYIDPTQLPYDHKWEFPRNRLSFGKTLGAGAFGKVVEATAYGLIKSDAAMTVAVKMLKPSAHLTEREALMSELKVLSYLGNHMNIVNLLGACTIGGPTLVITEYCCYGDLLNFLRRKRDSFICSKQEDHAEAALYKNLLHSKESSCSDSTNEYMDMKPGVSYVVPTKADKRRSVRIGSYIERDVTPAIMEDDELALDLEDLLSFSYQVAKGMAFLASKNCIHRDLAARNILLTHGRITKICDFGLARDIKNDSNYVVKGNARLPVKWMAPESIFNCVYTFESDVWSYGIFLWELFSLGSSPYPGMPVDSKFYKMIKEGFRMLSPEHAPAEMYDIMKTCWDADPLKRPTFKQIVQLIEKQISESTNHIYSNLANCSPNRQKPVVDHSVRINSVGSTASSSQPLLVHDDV
Description for M-NFS-60 cells: M-NFS-60 Cell Proliferation Assay A serial dilution of test compound was dispensed into a 384-well black clear bottom plate (Corning, Corning, N.Y.). Two thousand five hundred cells were added per well in 50 μL complete growth medium. […] IC50 values were calculated from a series of percent inhibition values determined at a range of inhibitor concentrations using software routines as implemented in the GraphPad Prism software package.

On to `CC(=O)Nc1cc(Oc2ccc(NC(=O)NC(=O)C(C)(C)C)nc2C)ccn1` [Example 9, N-((5-((2-acetamidopyridin-4-yl)oxy)-6-methylpyridin-2-yl)carbamoyl)pivalamide], for which the IC50 was below 10 nM in test [1]; above 1000 nM in test [2]; above 1000 nM in test [3]; below 10 nM in the test with M-NFS-60 cells; below 10 nM in the test with osteoclast precursors; below 10 nM in test [4].

Turning to `CCC(=O)Nc1cc(Oc2ccc(NC(=O)NC(=O)C(C)(C)C)nc2C)ccn1` [Example 12, N-((6-methyl-5-((2-propionamidopyridin-4-yl)oxy)pyridin-2-yl)carbamoyl)pivalamide], the IC50 is below 10 nM in test [1]; above 1000 nM in test [2]; 100 to 1000 nM in test [3]; below 10 nM with M-NFS-60 cells; 10 to 100 nM in the test with osteoclast precursors; 10 to 100 nM in test [4].

On to `Cc1nc(NC(=O)NC(=O)C(C)(C)C)ccc1Oc1ccnc(NC(=O)C(C)C)c1` [Example 13, N-((5-((2-isobutyramidopyridin-4-yl)oxy)-6-methylpyridin-2-yl)carbamoyl)pivalamide], for which the IC50 was below 10 nM in test [1]; above 1000 nM in test [2]; 100 to 1000 nM in test [3]; below 10 nM in the test with M-NFS-60 cells; 10 to 100 nM in the test with osteoclast precursors; below 10 nM in test [4].

For the compound `CC(C)C(=O)Nc1cc(Oc2ccc(NC(=O)NC(=O)C(C)(C)C)nc2)ccn1` [Example 17, N-((5-((2-isobutyramidopyridin-4-yl)oxy)pyridin-2-yl)carbamoyl)pivalamide], the IC50 was 10 to 100 nM in test [1]; above 1000 nM in test [2]; 100 to 1000 nM in test [3]; 10 to 100 nM with M-NFS-60 cells; 10 to 100 nM in the test with osteoclast precursors; 10 to 100 nM in test [4].

Regarding `CC(=O)Nc1cc(Oc2ccc(NC(=O)NC(=O)C3(C)CC3)nc2)ccn1` [Example 19, N-((5-((2-acetamidopyridin-4-yl)oxy)pyridin-2-yl)carbamoyl)-1-methylcyclopropanecarboxamide], the IC50 in test [1] was 10 to 100 nM; in test [2], 100 to 1000 nM; in test [3], 100 to 1000 nM; in the test on M-NFS-60 cells, 10 to 100 nM; in the test on osteoclast precursors it was below 10 nM; in test [4], 10 to 100 nM.

Consider `COC(C)(C)C(=O)NC(=O)Nc1ccc(Oc2ccnc(NC(C)=O)c2)c(C)n1` [Example 20, N-((5-((2-acetamidopyridin-4-yl)oxy)-6-methylpyridin-2-yl)carbamoyl)-2-methoxy-2-methylpropanamide], for which the IC50 in test [1] was 10 to 100 nM; in test [2], above 1000 nM; in test [3] it was above 1000 nM; with M-NFS-60 cells, below 10 nM; in the test on osteoclast precursors it was 10 to 100 nM; in test [4] it was below 10 nM.

As to `CCC(=O)Nc1cc(Oc2ccc(NC(=O)NC(=O)C(C)(C)C)nc2)ccn1` [Example 24, N-((5-((2-propionamidopyridin-4-yl)oxy)pyridin-2-yl)carbamoyl)pivalamide], the IC50 in test [1] was 10 to 100 nM; in test [2] it was 100 to 1000 nM; in test [3], 100 to 1000 nM; in the test with M-NFS-60 cells, 10 to 100 nM; with osteoclast precursors, below 10 nM; in test [4], below 10 nM.

`CC(=O)Nc1cc(Oc2ccc(NC(=O)NC(=O)C3(C(F)(F)F)CCC3)nc2)ccn1` [Example 25, N-((5-((2-acetamidopyridin-4-yl)oxy)pyridin-2-yl)carbamoyl)-1-(trifluoromethyl)cyclobutanecarboxamide]: the IC50 in test [1] was 10 to 100 nM; in test [2], above 1000 nM; in test [3] it was 100 to 1000 nM; in the test on M-NFS-60 cells it was 10 to 100 nM; in the test with osteoclast precursors it was below 10 nM; in test [4] it was below 10 nM.

Consider `COC1(C(=O)NC(=O)Nc2ccc(Oc3ccnc(NC(C)=O)c3)cn2)CC1` [Example 27, N-((5-((2-acetamidopyridin-4-yl)oxy)pyridin-2-yl)carbamoyl)-1-methoxycyclopropanecarboxamide], for which the IC50 was 10 to 100 nM in test [1]; above 1000 nM in test [2]; 100 to 1000 nM in test [3]; 10 to 100 nM in the test on M-NFS-60 cells; below 10 nM with osteoclast precursors; 10 to 100 nM in test [4].

As for `CC1(C(=O)NC(=O)Nc2ccc(Oc3ccnc(NC(=O)C4CC4)c3)cn2)CC1` [Example 30, N-((5-((2-(cyclopropanecarboxamido)pyridin-4-yl)oxy)pyridin-2-yl)carbamoyl)-1-methylcyclopropanecarboxamide], the IC50 in test [1] is below 10 nM; in test [2], 10 to 100 nM; in test [3] it was 100 to 1000 nM; with M-NFS-60 cells it was 10 to 100 nM; in the test on osteoclast precursors, below 10 nM; in test [4], below 10 nM.

As for `COC(C)(C)C(=O)NC(=O)Nc1ccc(Oc2ccnc(NC(=O)C3CC3)c2)cn1` [Example 31, N-(4-((6-(3-(2-methoxy-2-methylpropanoyl)ureido)pyridin-3-yl)oxy)pyridin-2-yl)cyclopropanecarboxamide], the IC50 in test [1] was below 10 nM; in test [2], 100 to 1000 nM; in test [3], 100 to 1000 nM; in the test on M-NFS-60 cells, 10 to 100 nM; in the test on osteoclast precursors, below 10 nM; in test [4], below 10 nM.

On to `CN1CCC(C(=O)Nc2cc(Oc3ccc(NC(=O)NC(=O)C4(C)CC4)nc3)ccn2)CC1` [Example 33, 1-methyl-N-(4-((6-(3-(1-methylcyclopropanecarbonyl)ureido)pyridin-3-yl)oxy)pyridin-2-yl)piperidine-4-carboxamide], for which the IC50 in test [1] was 10 to 100 nM; in test [2] it was above 1000 nM; in test [3] it was 100 to 1000 nM; with M-NFS-60 cells, 100 to 1000 nM; with osteoclast precursors, 10 to 100 nM; in test [4], 10 to 100 nM.

Consider `CCC(=O)Nc1cc(Oc2ccc(NC(=O)NC(=O)C3(C)CC3)nc2)ccn1` [Example 36, 1-methyl-N-((5-((2-propionamidopyridin-4-yl)oxy)pyridin-2-yl)carbamoyl)cyclopropanecarboxamide], for which the IC50 in test [1] is below 10 nM; in test [2] it was 100 to 1000 nM; in test [3] it was 10 to 100 nM; with M-NFS-60 cells, 10 to 100 nM; in the test on osteoclast precursors it was below 10 nM; in test [4] it was 10 to 100 nM.

As for `CCC(=O)Nc1cc(Oc2ccc(NC(=O)NC(=O)C(C)(C)OC)nc2)ccn1` [Example 37, 2-methoxy-2-methyl-N-((5-((2-propionamidopyridin-4-yl)oxy)pyridin-2-yl)carbamoyl)propanamide], the IC50 in test [1] is below 10 nM; in test [2], above 1000 nM; in test [3], 100 to 1000 nM; in the test with M-NFS-60 cells, 10 to 100 nM; in the test with osteoclast precursors, 10 to 100 nM; in test [4] it was below 10 nM.

Regarding `COC(C)(C)C(=O)NC(=O)Nc1cc(C)c(Oc2ccnc(NC(C)=O)c2)cn1` [Example 38, N-((5-((2-acetamidopyridin-4-yl)oxy)-4-methylpyridin-2-yl)carbamoyl)-2-methoxy-2-methylpropanamide], the IC50 in test [1] was below 10 nM; in test [2] it was 100 to 1000 nM; in test [3] it was 10 to 100 nM; with M-NFS-60 cells, below 10 nM; in the test on osteoclast precursors, 10 to 100 nM; in test [4], below 10 nM.

In the case of `COC1(C(=O)NC(=O)Nc2ccc(Oc3ccnc(NC(=O)C4CC4)c3)cn2)CC1` [Example 41, N-((5-((2-(cyclopropanecarboxamido)pyridin-4-yl)oxy)pyridin-2-yl)carbamoyl)-1-methoxycyclopropanecarboxamide], the IC50 was below 10 nM in test [1]; 100 to 1000 nM in test [2]; 10 to 100 nM in test [3]; 10 to 100 nM in the test on M-NFS-60 cells; below 10 nM in the test on osteoclast precursors; 10 to 100 nM in test [4].

For the compound `CC(=O)Nc1cc(Oc2cnc(NC(=O)NC(=O)C(C)(C)C)cc2C)ccn1` [Example 42, N-((5-((2-acetamidopyridin-4-yl)oxy)-4-methylpyridin-2-yl)carbamoyl)pivalamide], the IC50 in test [1] is below 10 nM; in test [2] it was 100 to 1000 nM; in test [3], 10 to 100 nM; with M-NFS-60 cells, below 10 nM; in the test with osteoclast precursors it was below 10 nM; in test [4] it was below 10 nM.

As to `CC(C)(C)C(=O)NC(=O)Nc1ccc(Oc2ccnc(NC(=O)N3CCOCC3)c2)cn1` [Example 46, N-(4-((6-(3-pivaloylureido)pyridin-3-yl)oxy)pyridin-2-yl)morpholine-4-carboxamide], the IC50 was below 10 nM in test [1]; 100 to 1000 nM in test [2]; 100 to 1000 nM in test [3]; below 10 nM in the test on M-NFS-60 cells; below 10 nM in the test on osteoclast precursors; below 10 nM in test [4].

Source of the values: patent publication US9309224B2 (Deciphera Pharmaceuticals, LLC, priority 2013, dated 2016).
